Data on 16 compounds can be found in ChEMBL document CHEMBL3407345, “Synthesis and biological evaluation of pyridazino[1',6':1,2]pyrido[3,4-b]indolinium and pyridazino[1,6-a]benzimidazolium salts as anti-inflammatory agents” (Eur J Med Chem, 2015).

The nature of data set [1]: Anti-inflammatory activity in human THP1 cells assessed as inhibition of LPS-stimulated TNFalpha production at 5 uM incubated for 24 hrs followed by further stimulation with LPS during last 4 hrs by ELISA method. Type of data set: functional. Particulars: THP-1. (In general: An ELISA detects its analyte on a solid surface through an enzyme-linked reagent.)
A short description of data set [2]: Anti-inflammatory activity in human THP1 cells assessed as inhibition of LPS-stimulated TNFalpha production at 1 uM incubated for 24 hrs followed by further stimulation with LPS during last 4 hrs by ELISA method. It is filed as functional. The settings on record: THP-1.
A short description of data set [3]: Anti-inflammatory activity in human THP1 cells assessed as inhibition of LPS-stimulated TNFalpha production at 10 uM incubated for 24 hrs followed by further stimulation with LPS during last 4 hrs by ELISA method. Type of data set: functional. Particulars: THP-1.
Data set [4] is described as follows: Toxicity against LPS-stimulated human THP1 cells assessed as cell viability at 10 uM incubated for 24 hrs by propidium iodide staining based flow cytometry. Particulars: thp-1, 24 h. (A flow cytometer gives signals particle by particle.)
The nature of data set [5]: Anti-inflammatory activity in human THP1 cells assessed as inhibition of LPS-stimulated TNFalpha production incubated for 24 hrs followed by further stimulation with LPS during last 4 hrs by ELISA method. Type of data set: functional, cell-based. The settings on record: THP-1.
Data set [6] can be described thus: Anti-inflammatory activity in human THP1 cells assessed as inhibition of LPS-stimulated TNFalpha production at 25 uM incubated for 24 hrs followed by further stimulation with LPS during last 4 hrs by ELISA method. Type of data set: functional. Particulars: THP-1.
Data set [7] in a line: Anti-inflammatory activity in human THP1 cells assessed as inhibition of LPS-stimulated TNFalpha production at 0.1 uM incubated for 24 hrs followed by further stimulation with LPS during last 4 hrs by ELISA method. The settings on record: THP-1. Type of data set: functional.
Data set [8] is described as follows: Toxicity against human THP1 cells assessed as cell viability at 10 uM incubated for 24 hrs by propidium iodide staining based flow cytometry. The settings on record: thp-1, 24 h.
Data set [9] can be described thus: Toxicity against LPS-stimulated human THP1 cells assessed as cell viability at 10 uM incubated for 24 hrs by propidium iodide staining based flow cytometry relative to control. The arrangement: species or system THP-1. Particulars: read-out: Activity.
A short description of data set [10]: Anti-inflammatory activity in human THP1 cells assessed as inhibition of LPS-stimulated TNFalpha production at 100 uM incubated for 24 hrs followed by further stimulation with LPS during last 4 hrs by ELISA method. It is filed as functional. The settings on record: THP-1.
A short description of data set [11]: Anti-inflammatory activity in human THP1 cells assessed as inhibition of LPS-stimulated TNFalpha production at 50 uM incubated for 24 hrs followed by further stimulation with LPS during last 4 hrs by ELISA method. Particulars: THP-1. Type of data set: functional.
For data set [12], the target named is T1, Tumor necrosis factor receptor superfamily member 1A (Homo sapiens, UniProt P19438).
T1 sequence (P19438 whole entry): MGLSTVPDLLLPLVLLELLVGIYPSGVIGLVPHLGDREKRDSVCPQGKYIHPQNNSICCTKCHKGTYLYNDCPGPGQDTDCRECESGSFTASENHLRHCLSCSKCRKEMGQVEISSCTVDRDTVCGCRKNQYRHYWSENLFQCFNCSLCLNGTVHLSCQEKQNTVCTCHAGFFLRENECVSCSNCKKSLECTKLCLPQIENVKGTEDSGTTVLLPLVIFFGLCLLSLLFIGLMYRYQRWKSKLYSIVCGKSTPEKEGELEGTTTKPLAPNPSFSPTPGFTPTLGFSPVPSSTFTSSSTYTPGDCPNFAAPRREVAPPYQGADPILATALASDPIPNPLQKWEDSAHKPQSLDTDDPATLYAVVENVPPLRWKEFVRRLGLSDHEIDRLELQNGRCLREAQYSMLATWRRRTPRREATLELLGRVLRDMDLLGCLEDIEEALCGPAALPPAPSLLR
As to the kind of experiment: Inhibition of TNFR1 (unknown origin).

One may read the inhibition as the relative decrease from the control value, in per cent. A word on the IC50: it is the concentration needed to halve the response being measured. As to `Cc1cc(C)cc(CS(=O)(=O)[O-])c1.O=C(O)Cn1c2ccccc2[n+]2nc3c(cc12)-c1cccc2cccc-3c12`, the inhibition at 5 µM in data set [1] was determined as 7%. The inhibition at 1 µM in data set [2] is 12%. The inhibition at 10 µM in data set [3] came to 45%. Also, the Activity result in data set [4] and in data set [8] was “Non-toxic” each time. Moreover, the IC50 in data set [5] was 14.6 µM. Also, the inhibition at 25 µM in [6] is 84%. In addition, in data set [7], the inhibition at 0.1 µM was found to be 9%. Also, the viability at 24 h, 10 µM in [9] came to 69.9%.

On to `C#CCCCn1c2cc(OC)ccc2c2cc[n+]3nc(-c4ccco4)c(-c4ccco4)cc3c21.Cc1cc(C)cc(CS(=O)(=O)[O-])c1`, for which the inhibition at 10 µM in data set [3] was 87%. Further, the Activity result in [4] and in data set [8] was “Non-toxic” throughout. Moreover, the viability at 24 h, 10 µM in [9] was 0%.

Turning to `CCc1cc2c3[nH]c4c([N+](=O)[O-])cccc4c3cc[n+]2nc1CC.Cc1cc(C)cc(CS(=O)(=O)[O-])c1`, the inhibition at 5 µM in data set [1] was 56%. For the same compound, the inhibition at 1 µM in data set [2] turned out to be 44%. Also, the inhibition at 10 µM in data set [3] was 29%. The Activity entry in [4] and in data set [8] was “Non-toxic” throughout. In addition, the inhibition at 25 µM in data set [6] stood at 47%. Besides, in [9], the viability at 24 h, 10 µM is 79.4%.

With `O=C1NC2c3ccccc3C(=O)N2c2ccccc21` (stereo not given), the IC50 in data set [5] was determined as 9.33 µM.

`CCc1cc2c3c(cc[n+]2nc1CC)c1ccc(OC)cc1n3CC(=O)O.Cc1cc(C)cc(CS(=O)(=O)[O-])c1`: the inhibition at 100 µM in data set [10] stood at 40%. Also, the inhibition at 10 µM in data set [3] was determined as 38%. For the same compound, in [11], the inhibition at 50 µM turned out to be 35%. Further, the Activity result in data set [4] and in [8] was “Non-toxic” throughout. In addition, the inhibition at 25 µM in [6] is 29%. Moreover, in data set [9], the viability at 24 h, 10 µM worked out at 93%.

Regarding `CCc1cc2c3[nH]c4ccc(Br)cc4c3cc[n+]2nc1CC.Cc1cc(C)cc(CS(=O)(=O)[O-])c1`, the inhibition at 10 µM in [3] was determined as 89%. Further, the Activity result in data set [4] and in data set [8] was “Non-toxic” each time. Further, the viability at 24 h, 10 µM in data set [9] was 3.76%.

In the case of `CCc1cc2c3c(cc[n+]2nc1CC)c1ccc(OC)cc1n3CCCI.[I-]`, the inhibition at 5 µM in data set [1] was 36%. In addition, the inhibition at 1 µM in data set [2] came out at 11%. In addition, in data set [3], the inhibition at 10 µM turned out to be 72%. The Activity result in data set [4] and in data set [8] was “Non-toxic” throughout. Further, the concentration for half-maximal inhibition (IC50) in data set [5] is 9.88 µM. Also, in [6], the inhibition at 25 µM stood at 79%. The viability at 24 h, 10 µM in data set [9] came to 63.3%.

`C#CCCCn1c2cc(OC)ccc2c2cc[n+]3nc4c(cc3c21)-c1cccc2cccc-4c12.Cc1cc(C)cc(CS(=O)(=O)[O-])c1`: the inhibition at 10 µM in [3] is 94%. Also, the Activity entry in data set [4] and in data set [8] was “Non-toxic” each time. The viability at 24 h, 10 µM in data set [9] was 0%.

On to `Cc1cc2occ(CN(C)CCN(C)Cc3cn(-c4cccc(C(F)(F)F)c4)c4ccccc34)c(=O)c2cc1C`, for which, in [12], the IC50 was 22 µM.

As to `CCc1cc2c3c(cc[n+]2nc1CC)c1ccc(OCc2ccccc2)cc1n3C(=O)OC(C)(C)C.Cc1cc(C)cc(CS(=O)(=O)[O-])c1`, the inhibition at 10 µM in [3] was found to be 94%. Further, the Activity result in data set [4] and in [8] was “Non-toxic” in each case. In addition, the viability at 24 h, 10 µM in [9] stood at 33%.

Consider `CCc1cc2c3c(cc[n+]2nc1CC)c1ccc(OC)cc1n3CCCC#CC#CCCCn1c2cc(OC)ccc2c2cc[n+]3nc(CC)c(CC)cc3c21.Cc1cc(C)cc(CS(=O)(=O)[O-])c1.Cc1cc(C)cc(CS(=O)(=O)[O-])c1`, for which, in [3], the inhibition at 10 µM came out at 34%. Further, the Activity result in [4] and in data set [8] was “Non-toxic” each time. The viability at 24 h, 10 µM in [9] amounted to 9.54%.

As for `Cc1cc(C)cc(CS(=O)(=O)[O-])c1.O=C(O)CCCn1c2ccccc2[n+]2nc3c(cc12)-c1cccc2cccc-3c12`, the inhibition at 100 µM in [10] is 85%. The inhibition at 10 µM in [3] amounted to 19%. In data set [11], the inhibition at 50 µM came to 70%. The Activity result in data set [4] and in [8] was “Non-toxic” in each case. Further, the IC50 in data set [5] is 39.2 µM. In data set [6], the inhibition at 25 µM turned out to be 47%. Besides, in [9], the viability at 24 h, 10 µM amounted to 86%.

With `Cc1ccc(C2=Cc3ccccc3C3N(C)C(=O)c4ccccc4N23)cc1` (stereo not given), in data set [3], the inhibition at 10 µM came out at 47%.

For `CCOC(=O)Cn1c2cc(OC)ccc2c2cc[n+]3nc(CC)c(CC)cc3c21.Cc1cc(C)cc(CS(=O)(=O)[O-])c1`, in [1], the inhibition at 5 µM came out at 67%. Further, the inhibition at 1 µM in data set [2] was found to be 51%. Moreover, in data set [3], the inhibition at 10 µM is 45%. In addition, the Activity entry in [4] and in data set [8] was “Non-toxic” in each case. Also, the IC50 in data set [5] worked out at 11.5 µM. In addition, the inhibition at 25 µM in [6] came to 94%. Besides, in data set [9], the viability at 24 h, 10 µM was 89.7%.

Take `CN(C)CCC[N+](C)(C)CCCn1c2ccccc2[n+]2nc3c(cc12)-c1cccc2cccc-3c12.[Br-].[Br-]`: the inhibition at 10 µM in data set [3] is 39%. Also, the Activity result in [4] and in data set [8] was “Non-toxic” in each case. Besides, the viability at 24 h, 10 µM in [9] turned out to be 25.3%.

`CCc1cc2c3[nH]c4c(N)cccc4c3cc[n+]2nc1CC.Cl.Cl`: in [1], the inhibition at 5 µM is -13.4%. The inhibition at 1 µM in data set [2] was found to be 13.3%. Further, the inhibition at 10 µM in data set [3] turned out to be 88%. The Activity result in data set [4] and in [8] was “Non-toxic” each time. For the same compound, in [9], the viability at 24 h, 10 µM is 65%.
